pIC50: −log10 of the molar value. Converted amounts (≈) assume the structure as drawn. Like-named read-outs stand apart in the source and are kept apart here.
How the values were obtained:
[1] = system: Methicillin Resistant Staphylococcus aureus strain USA 300, NRS384; test: Minimum inhibitory concentration, broth micro-dilution (CLSI), S. aureus; type: cell-based; conditions: Staphylococcus aureus, MRSA / NRS 384 / USA300, 22 h, 35° C., 22 hours
In short: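 CLSI broth microdilution in cation-adjusted Mueller Hinton Broth with 0.002% Tween-80; inoculum final OD600 0.0005, 22 hours at 35° C. Ten 2-fold dilutions starting at 4 μg/mL (protocol 2) or 0.5 μg/mL (protocol 3).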

[2] = system: Escherichia coli ATCC 25922; test: Minimum inhibitory concentration, broth micro-dilution (CLSI), E. coli; type: cell-based; conditions: Escherichia coli, ATCC25922, 22 h, 35° C., 22 hours
[3] = system: Escherichia coli MC4100 harboring the IMP4213 (E. coli IMP); test: microbe, parasite or virus in culture; type: cell-based; conditions: Escherichia coli, 22 h, read-out: MIC (μg/mL) E. coli IMP, E. coli MC4100 IMP4213, increased outer-membrane permeability; 35° C., 22 hours
In short: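 Top conc 4 μg/mL (protocol 2) or 0.5 μg/mL (protocol 3), 2-fold series, 10 points. Final OD600 0.0005; 22 h, 35° C. IMP4213 = permeable outer membrane.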

[4] = target: T1, SpsB (Staphylococcus aureus signal peptidase) (Staphylococcus aureus, UniProt P0A070); test: cell-based; type: biochemical; conditions: SpsB IC50, whole-cell S. aureus (USA300 background, overexpressing SpsB) as SpsB source; fluorogenic peptide substrate, kinetic read 30 min
T1 construct: This assay uses a suspension of Staphylococcus aureus cells as a source of SpsB instead of recombinant SpsB protein; endogenous in cells; host or cells: S. aureus, USA300 background, overexpressing SpsB (whole-cell suspension from frozen pellets)
T1 sequence (P0A070 whole entry): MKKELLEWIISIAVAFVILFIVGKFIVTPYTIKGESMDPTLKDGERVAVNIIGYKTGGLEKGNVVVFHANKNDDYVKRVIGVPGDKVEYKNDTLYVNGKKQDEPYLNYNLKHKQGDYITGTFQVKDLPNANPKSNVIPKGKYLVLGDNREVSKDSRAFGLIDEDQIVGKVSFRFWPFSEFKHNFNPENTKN
In short: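 Cleavage of an internally quenched (Dabcyl)βAla-KPAKAAE(Edans) peptide, added as 20 μM solution mixed 1:1 with cells, was followed for 30 min at 340/490 nm. SpsB came from a suspension of SpsB-overexpressing USA300 S. aureus in Tween-80-containing PBS buffer. Slopes plotted against 3-fold compound dilutions gave IC50.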

[5] = MRSA USA 300 NRS384, read-out: MIC (μg/mL) S. aureus
[6] = E. coli ATCC 25922, read-out: MIC (μg/mL) E. coli
[7] = read-out: MIC (μg/mL) S. aureus, MRSA USA 300 NRS384
[8] = read-out: MIC (μg/mL) E. coli, E. coli ATCC 25922

Row | SMILES | MIC [1, 5] [µg/mL] | MIC [2, 6] [µg/mL] | MIC [3] [µg/mL] | pIC50 [4] | MIC [1, 7] [µg/mL] | MIC [2, 8] [µg/mL]
1 | CCCCc1ccc(NC(=O)CCC(=O)N[C@@H](CCN)C(=O)N(C)[C@@H]2C(=O)N[C@@H](C)C(=O)N[C@H](C(=O)NCC#N)Cc3ccc(OCCN)c(c3)-c3cc2ccc3OCCN)c(C)c1 [Compound 377] | 0.13 (≈ 0.147 µM) | 8 (≈ 9.06 µM) | 0.13 (≈ 0.147 µM) | 9.00 |  | 
2 | CCCCCCCCCC(=O)N[C@@H](CCO)C(=O)N[C@@H](CCN)C(=O)N(C)[C@@H]1C(=O)N[C@@H](C)C(=O)N[C@H](C(=O)NCC#N)Cc2ccc(OCCN)c(c2)-c2cc1ccc2OCCN [Compound 378] |  |  | 0.25 (≈ 0.28 µM) | 9.06 | 0.13 (≈ 0.146 µM) | 24 (≈ 26.9 µM)
3 | CCCCCCCCCC(=O)N[C@H](CCO)C(=O)N[C@@H](CCN)C(=O)N(C)[C@@H]1C(=O)N[C@@H](C)C(=O)N[C@H](C(=O)NCC#N)Cc2ccc(OCCN)c(c2)-c2cc1ccc2OCCN [Compound 379] |  |  | 0.25 (≈ 0.28 µM) | 9.05 | 0.25 (≈ 0.28 µM) | 32 (≈ 35.8 µM)
4 | CCCCc1ccc(C(=O)N[C@H](CCO)C(=O)N[C@@H](CCN)C(=O)N(C)[C@@H]2C(=O)N[C@@H](C)C(=O)N[C@H](C(=O)NCC#N)Cc3ccc(OCCN)c(c3)-c3cc2ccc3OCCN)c(C)c1 [Compound 381] |  |  | 0.5 (≈ 0.548 µM) | 8.54 | 0.5 (≈ 0.548 µM) | 64 (≈ 70.1 µM)
5 | CCCCCCCc1ccc(C(=O)N[C@@H](CO)C(=O)N[C@@H](CCN)C(=O)N(C)[C@@H]2C(=O)N[C@@H](C)C(=O)N[C@H](C(=O)NCC#N)Cc3ccc(OCCN)c(c3)-c3cc2ccc3OCCN)cc1 [Compound 383] |  |  | 0.023 (≈ 0.0248 µM) | 9.06 | 0.018 (≈ 0.0194 µM) | 4 (≈ 4.31 µM)
6 | CCCCCCCCCCCC(=O)N[C@@H](CO)C(=O)N[C@@H](CCN)C(=O)N(C)[C@@H]1C(=O)N[C@@H](C)C(=O)N[C@H](C(=O)NCC#N)Cc2ccc(OCCN)c(c2)-c2cc1ccc2OCCN [Compound 384] |  |  | 0.031 (≈ 0.0342 µM) | 8.92 | 0.012 (≈ 0.0132 µM) | 3 (≈ 3.31 µM)
7 | CCCCCCCSc1ccc(C(=O)N[C@@H](CCN)C(=O)N(C)[C@@H]2C(=O)N[C@@H](C)C(=O)N[C@H](C(=O)NCC#N)Cc3ccc(OCCN)c(c3)-c3cc2ccc3OCCN)c(C)c1 [Compound 389] | 0.063 (≈ 0.0711 µM) | 0.25 (≈ 0.282 µM) | 0.031 (≈ 0.035 µM) | 9.09 |  | 
8 | CCCCCCCS(=O)(=O)c1ccc(C(=O)N[C@@H](CCN)C(=O)N(C)[C@@H]2C(=O)N[C@@H](C)C(=O)N[C@H](C(=O)NCC#N)Cc3ccc(OCCN)c(c3)-c3cc2ccc3OCCN)c(C)c1 [Compound 390] | 0.13 (≈ 0.142 µM) | 3 (≈ 3.27 µM) | 0.031 (≈ 0.0338 µM) | 8.96 |  | 
9 | CCCCCCSc1ccc(C(=O)N[C@@H](CCN)C(=O)N(C)[C@@H]2C(=O)N[C@@H](C)C(=O)N[C@H](C(=O)NCC#N)Cc3ccc(OCCN)c(c3)-c3cc2ccc3OCCN)c(C)c1 [Compound 391] | 0.047 (≈ 0.0539 µM) | 0.5 (≈ 0.573 µM) | 0.016 (≈ 0.0183 µM) | 9.00 |  | 
10 | CCCCCCCCCCN[C@@H](CO)C(=O)N(C)[C@@H]1C(=O)N[C@@H](C)C(=O)N[C@H](C(=O)NCC#N)Cc2ccc(OCCN)c(c2)-c2cc1ccc2OCCN [Compound 400] |  |  | 2 (≈ 2.61 µM) | 8.30 | 0.25 (≈ 0.327 µM) | > 64
11 | CCCCCCCCCCCNC(=O)N[C@@H](CCN)C(=O)N(C)[C@@H]1C(=O)N[C@@H](C)C(=O)N[C@H](C(=O)NCC#N)Cc2ccc(OCCN)c(c2)-c2cc1ccc2OCCN [Compound 403] | 0.029 (≈ 0.0347 µM) | 1.3 (≈ 1.56 µM) | 0.023 (≈ 0.0275 µM) | > 9.30 |  | 
12 | CCCCCCc1ccc(NC(=O)N[C@@H](CCN)C(=O)N(C)[C@@H]2C(=O)N[C@@H](C)C(=O)N[C@H](C(=O)NCC#N)Cc3ccc(OCCN)c(c3)-c3cc2ccc3OCCN)c(C)c1 [Compound 404] |  |  | 0.047 (≈ 0.055 µM) | 9.06 | 0.063 (≈ 0.0737 µM) | 2 (≈ 2.34 µM)
13 | CCCCCCCCCCC(C)(C)C(=O)N[C@@H](CCN)C(=O)N(C)[C@@H]1C(=O)N[C@@H](C)C(=O)N[C@H](C(=O)NCC#N)Cc2ccc(OCCN)c(c2)-c2cc1ccc2OCCN [Compound 406] | 0.063 (≈ 0.0743 µM) | 2 (≈ 2.36 µM) | 0.031 (≈ 0.0366 µM) | 8.92 |  | 
14 | CCCCCCCCc1ccc(C(=O)N[C@@H](CCN)C(=O)N(C)[C@@H]2C(=O)N[C@@H](C)C(=O)N[C@H](C(=O)NCC#N)Cc3ccc(OCCN)c(c3)-c3cc2ccc3OCCN)c(OCC(N)=O)c1 [Compound 407] | 0.047 (≈ 0.0507 µM) | 4 (≈ 4.31 µM) | 0.047 (≈ 0.0507 µM) | 8.96 |  | 
15 | CCCCCCCC(F)(F)c1ccc(C(=O)N[C@@H](CCN)C(=O)N(C)[C@@H]2C(=O)N[C@@H](C)C(=O)N[C@H](C(=O)NCC#N)Cc3ccc(OCCN)c(c3)-c3cc2ccc3OCCN)c(Cl)c1 [Compound 412] |  |  | 0.012 (≈ 0.013 µM) | 9.22 | 0.031 (≈ 0.0335 µM) | 0.13 (≈ 0.141 µM)
16 | CCCCCCCC(=O)c1ccc(C(=O)N[C@@H](CCN)C(=O)N(C)[C@@H]2C(=O)N[C@@H](C)C(=O)N[C@H](C(=O)NCC#N)Cc3ccc(OCCN)c(c3)-c3cc2ccc3OCCN)c(Cl)c1 [Compound 413] | 0.031 (≈ 0.0343 µM) | 0.25 (≈ 0.277 µM) | 0.0078 (≈ 0.00864 µM) | 9.06 |  | 
17 | CCCCCCCCCCNCCC(=O)N[C@@H](CCCCN)C(=O)N(C)[C@@H]1C(=O)N[C@@H](C)C(=O)N[C@H](C(=O)NC(C)C#N)Cc2ccc(OCCN)c(c2)-c2cc1ccc2OCCN (stereo partly drawn) [Compound 415] |  |  | 4 (≈ 4.49 µM) | 7.85 | > 4 | 64 (≈ 71.8 µM)
18 | CCCCCCCCCCCC(=O)N[C@@H](CO)C(=O)N(C)[C@@H]1C(=O)N[C@@H](C)C(=O)N[C@H](C(=O)N[C@H](C#N)C2CC2)Cc2ccc(OCCN)c(c2)-c2cc1ccc2OCCN [Compound 420] | 4 (≈ 4.72 µM) | 24 (≈ 28.3 µM) | 1 (≈ 1.18 µM) | 8.08 |  | 
19 | CCCCCCCCc1cccc(C(=O)N[C@@H](CCCCN)C(=O)N(C)[C@@H]2C(=O)N[C@@H](C)C(=O)N[C@H](C(=O)NCC#N)Cc3ccc(OCCN)c(c3)-c3cc2ccc3OCCN)c1 [Compound 421] | 0.063 (≈ 0.0714 µM) | 2 (≈ 2.27 µM) | 0.063 (≈ 0.0714 µM) | 8.80 |  | 
20 | CCCCCCCCc1ccc(C)c(C(=O)N[C@@H](CCCCN)C(=O)N(C)[C@@H]2C(=O)N[C@@H](C)C(=O)N[C@H](C(=O)NCC#N)Cc3ccc(OCCN)c(c3)-c3cc2ccc3OCCN)c1 [Compound 422] | 0.063 (≈ 0.0703 µM) | 1.5 (≈ 1.67 µM) | 0.031 (≈ 0.0346 µM) | 8.96 |  | 
21 | C[C@@H]1NC(=O)[C@@H](N(C)C(=O)[C@H](CCN)NC(=O)c2ccc(C#Cc3ccccc3)cc2F)c2ccc(OCCN)c(c2)-c2cc(ccc2OCCN)C[C@@H](C(=O)NCC#N)NC1=O [Compound 423] |  |  | 0.014 (≈ 0.0163 µM) | 9.07 | 0.063 (≈ 0.0733 µM) | 0.44 (≈ 0.512 µM)
22 | C[C@@H]1NC(=O)[C@@H](N(C)C(=O)[C@H](CCN)NC(=O)c2ccc(C#Cc3ccccc3)cc2Cl)c2ccc(OCCN)c(c2)-c2cc(ccc2OCCN)C[C@@H](C(=O)NCC#N)NC1=O [Compound 424] |  |  | 0.016 (≈ 0.0183 µM) | 9.12 | 0.063 (≈ 0.0719 µM) | 0.56 (≈ 0.639 µM)
23 | Cc1cc(C#Cc2ccccc2)ccc1C(=O)N[C@@H](CCN)C(=O)N(C)[C@@H]1C(=O)N[C@@H](C)C(=O)N[C@H](C(=O)NCC#N)Cc2ccc(OCCN)c(c2)-c2cc1ccc2OCCN [Compound 425] | 0.047 (≈ 0.0549 µM) | 0.63 (≈ 0.736 µM) | 0.018 (≈ 0.021 µM) | 8.96 |  | 
24 | CCCCC1CCC(C2CCC(C(=O)N[C@@H](CCN)C(=O)N(C)[C@@H]3C(=O)N[C@@H](C)C(=O)N[C@H](C(=O)NCC#N)Cc4ccc(OCCN)c(c4)-c4cc3ccc4OCCN)CC2)CC1 (stereo partly drawn) [Compound 426] | 0.063 (≈ 0.0711 µM) | 0.19 (≈ 0.214 µM) | < 0.0039 | 8.92 |  | 

— patent US20180327367A1, “MACROCYCLIC BROAD SPECTRUM ANTIBIOTICS” (priority 2015, published 2018)
